Data from patent publication US10899759B2, “Positive allosteric modulators of the muscarinic acetylcholine receptor M1” (Vanderbilt University, priority 2016, dated 2021).

Molecular target: T1, human mAChR M1 (Homo sapiens, UniProt P11229)
T1 construct: host or cells: CHO-K1
T1 sequence (P11229 1-460): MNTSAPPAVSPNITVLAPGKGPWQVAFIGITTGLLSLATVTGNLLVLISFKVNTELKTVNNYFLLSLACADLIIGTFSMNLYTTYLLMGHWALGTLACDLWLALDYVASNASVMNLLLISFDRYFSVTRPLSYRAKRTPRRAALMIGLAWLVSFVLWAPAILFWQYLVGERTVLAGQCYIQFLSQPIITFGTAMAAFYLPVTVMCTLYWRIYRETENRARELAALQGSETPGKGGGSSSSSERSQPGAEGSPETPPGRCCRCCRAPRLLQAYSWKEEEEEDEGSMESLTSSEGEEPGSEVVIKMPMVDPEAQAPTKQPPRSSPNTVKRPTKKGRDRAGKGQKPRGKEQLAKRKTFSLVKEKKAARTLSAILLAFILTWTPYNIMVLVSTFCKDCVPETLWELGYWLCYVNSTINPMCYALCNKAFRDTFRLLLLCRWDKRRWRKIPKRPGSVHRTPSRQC
Experiment: mAChR M1 cell-based functional assay (calcium mobilization, Fluo-4, FDSS)
Details: CHO-K1 cells stably expressing hM1; for Emax: read-out: Human M1 Emax; for EC50: positive allosteric modulator activity as increase in the EC20 acetylcholine response
Procedure: Chinese hamster ovary (CHO-K1) cells stably expressing rat (r)M1 were purchased from the American Type Culture Collection and cultured according to their indicated protocol. […] To make stable rM2, hM2, rM3, hM4, and rM4 cell lines for use in calcium mobilization assays, these cells also were stably transfected with a chimeric G-protein (Gqi5) (provided by B. R. Conklin, University of California, San Francisco) using Lipofectamine 2000. rM1, hM1, rM3, hM3, rM5, and hM5 cells were grown in Ham's F-12 medium containing 10% heat-inactivated fetal bovine serum (FBS), 20 mM HEPES, and 50 μg/mL G418 sulfate. rM2-Gqi5, hM2-Gqi5, and hM4-Gqi5 cells were grown in the same medium also containing 500 μg/mL Hygromycin B. Stable rM4-Gqi5 cells were grown in DMEM containing 10% heat-inactivated FBS, 20 mM HEPES, 400 μg/mL G418 sulfate, and 500 μg/mL Hygromycin B.
For high throughput measurement of agonist-evoked increases in intracellular calcium, CHO-K1 cells stably expressing muscarinic receptors were plated in growth medium lacking G418 and hygromycin at 15,000 cells/20 μL/well in Greiner 384-well black-walled, tissue culture (TC)-treated, clear-bottom plates (VWR). Cells were incubated overnight at 37° C. and 5% CO2. […] Compound master plates were formatted in an 11 point CRC format (1:3 dilutions) in 100% DMSO with a starting concentration of 10 mM using the BRAVO liquid handler (Agilent). Test compound CRCs were then transferred to daughter plates (240 nL) using the Echo acoustic plate reformatter (Labcyte, Sunnyvale, Calif.) and then diluted into assay buffer (40 μL) to a 2× stock using a Thermo Fisher Combi (Thermo Fisher Scientific, Waltham, Mass.).
Calcium flux was measured using the Functional Drug Screening System (FDSS) 6000 (Hamamatsu Corporation, Tokyo, Japan) as an increase in the fluorescent static ratio. Compounds were applied to cells (20 μL, 2×) using the automated system of the FDSS 6000 at 4 s into the 300 s protocol and the data were collected at 1 Hz. […] Agonist activity was analyzed as a concentration-dependent increase in calcium mobilization upon compound addition. Positive allosteric modulator activity was analyzed as a concentration-dependent increase in the EC20 acetylcholine response. Antagonist activity was analyzed as a concentration-dependent decrease in the EC80 acetylcholine response. Concentration-response curves were generated using a four-parameter logistical equation in XLfit curve fitting software (IDBS, Bridgewater, N.J.) for Excel (Microsoft, Redmond, Wash.) or Prism (GraphPad Software, Inc., San Diego, Calif.).
The compound numbers correspond to the compound numbers used in Table 1.

Compound	Emax (EC20 acetylcholine response) [%]	EC50 [µM]	Human M1 Emax (EC20 acetylcholine response) [%]
CC1CC(NC(=O)c2cc(Cc3ccc(-c4cnn(C)c4)nc3)c3ccsc3n2)CC(C)O1 (stereo not shown) [Compound 116, N-(2,6-dimethyltetrahydropyran-4-yl)-4-[[6-(1-methylpyrazol-4-yl)-3-pyridyl]methyl]thieno[2,3-b]pyridine-6-carboxamide]	54.8	0.05	–
Cn1ccc(-c2ccc(Cc3cc(C(=O)N[C@H]4CCOC[C@@H]4O)nc4c3ccn4C)cc2)n1 [Compound 37, N-[(3R,4S)-3-hydroxytetrahydropyran-4-yl]-1-methyl-4-[[4-(1-methylpyrazol-3-yl)phenyl]methyl]pyrrolo[2,3-b]pyridine-6-carboxamide]	76.7	0.06	–
Cn1ccc(-c2ccc(Cc3cc(C(=O)NC4CCOCC4)nc4c3ccn4C)cc2)n1 [Compound 39, 1-methy1-4-[[4-(1-methylpyrazol-3-yl)phenyl]methyl]-N-tetrahydropyran-4-yl-pyrrolo[2,3-b]pyridine-6-carboxamide]	81.2	0.75	–
Cn1ccc(-c2ccc(Cc3cc(C(=O)NCC4CCOC4)nc4sccc34)cn2)n1 (stereo not shown) [Compound 108, 4-[[6-(1-methylpyrazol-3-yl)-3-pyridyl]methyl]-N-(tetrahydrofuran-3-ylmethyl)thieno[2,3-b]pyridine-6-carboxamide]	59.4	0.15	–
Cn1ncc2c(Cc3ccc(-c4cscn4)cc3)cc(C(=O)NCC3CCOCC3)nc21 [Compound 29, 1-methyl-N-(tetrahydropyran-4-ylmethyl)-4-[(4-thiazol-4-ylphenyl)methyl]pyrazolo[3,4-b]pyridine-6-carboxamide]	48.1	1.61	–
Cn1ccc(-c2ccc(Cc3cc(C(=O)NC4COC4)nc4c3ccn4C)cc2)n1 [Compound 44, 1-methy1-4-[[4-(1-methylpyrazol-3-yl)phenyl]methyl]-N-(oxetan-3-yl)pyrrolo[2,3-b]pyridine-6-carboxamide]	56.1	6.28	–
O=C(NCC1CCOCC1)c1cc(Cc2ccc(-n3cccn3)cc2)c2ccsc2n1 [Compound 76, 4-[(4-pyrazol-1-ylphenyl)methyl]-N-(tetrahydropyran-4-ylmethyl)thieno[2,3-b]pyridine-6-carboxamide]	68.8	0.42	–
Cn1ccc(-c2ccc(Cc3cc(C(=O)NC4CCOCC4(C)C)nc4sccc34)cc2)n1 (stereo not shown) [Compound 92, N-(3,3-dimethyltetrahydropyran-4-yl)-4-[[4-(1-methylpyrazol-3-yl)phenyl]methyl]thieno[2,3-b]pyridine-6-carboxamide]	61.6	1.18	–
Cc1nc(-c2ccc(Cc3cc(C(=O)NC4CCOCC4)nc4sccc34)cc2)co1 [Compound 4, 4-[[4-(2-methyloxazol-4-yl)phenyl]methyl]-N-tetrahydropyran-4-yl-thieno[2,3-b]pyridine-6-carboxamide]	57.9	0.14	–
Cn1ncc2c(Cc3ccc(-n4cccn4)cc3)cc(C(=O)N[C@H]3CCOC[C@@H]3O)nc21 [Compound 7, N-[(3R,4S)-3-hydroxytetrahydropyran-4-yl]-1-methyl-4-[(4-pyrazol-1-ylphenyl)methyl]pyrazolo[3,4-b]pyridine-6-carboxamide]	89	0.2	–
Cn1cc(-c2ccc(Cc3cc(C(=O)N[C@H]4CC[C@@H]4O)nc4c3ccn4C)cn2)cn1 [Compound 50, N-[(1S,2S)-2-hydroxycyclobutyl]-1-methyl-4-[[6-(1-methylpyrazol-4-yl)-3-pyridyl]methyl]pyrrolo[2,3-b]pyridine-6-carboxamide]	86.2	0.38	–
O=C(N[C@@H]1CCOC1)c1cc(Cc2ccc(-n3cccn3)cc2)c2ccsc2n1 [Compound 78, 4-[(4-pyrazol-1-ylphenyl)methyl]-N-[(3R)-tetrahydrofuran-3-yl]thieno[2,3-b]pyridine-6-carboxamide]	68.5	1.72	–
1-methyl-N-tetrahydropyran-4-yl-4-[(4-thiazol-2-ylphenyl)methyl]pyrrolo[2,3-b]pyridine-6-carboxamide [Compound 61]	–	0.84	56.7
CC1(C)COCCC1NC(=O)c1cc(Cc2ccc(-n3cccn3)cc2)c2ccsc2n1 (stereo not shown) [Compound 74, N-(3,3-dimethyltetrahydropyran-4-yl)-4-[(4-pyrazol-1-ylphenyl)methyl]thieno[2,3-b]pyridine-6-carboxamide]	69.1	1.29	–
Cn1cc(-c2ccc(Cc3cc(C(=O)N[C@@H]4CCOC4)nc4sccc34)cn2)cn1 [Compound 121, 4-[[6-(1-methylpyrazol-4-yl)-3-pyridyl]methyl]-N-[(3R)-tetrahydrofuran-3-yl]thieno[2,3-b]pyridine-6-carboxamide]	58.9	0.55	–

Further lines, with some results ahead:

Emax (EC20 acetylcholine response) [%]	EC50 [µM]	Compound	Human M1 Emax (EC20 acetylcholine response) [%]
60.1	2.37	Cc1nc(-c2ccc(Cc3cc(C(=O)NCC4CCN4)nc4sccc34)cc2)co1 (stereo not shown) [Compound 142, N-(azetidin-2-ylmethyl)-4-[[4-(2-methyloxazol-4-yl)phenyl]methyl]thieno[2,3-b]pyridine-6-carboxamide]	–
56.2	0.1	Cn1cc(-c2ccc(Cc3cc(C(=O)NC4CC5(COC5)C4)nc4sccc34)cn2)cn1 [Compound 123, 4-[[6-(1-methylpyrazol-4-yl)-3-pyridyl]methyl]-N-(2-oxaspiro[3.3]heptan-6-yl)thieno[2,3-b]pyridine-6-carboxamide]	–
63.8	0.27	COCCNC(=O)c1cc(Cc2ccc(-c3cnn(C)c3)nc2)c2ccsc2n1 [Compound 127, N-(2-methoxyethyl)-4-[[6-(1-methylpyrazol-4-yl)-3-pyridyl]methyl]thieno[2,3-b]pyridine-6-carboxamide]	–
78.1	0.37	Cn1ccc(-c2ccc(Cc3cc(C(=O)NC4CC5(COC5)C4)nc4c3ccn4C)cn2)n1 [Compound 149, 1-methyl-4-[[6-(1-methylpyrazol-3-yl)-3-pyridyl]methyl]-N-(2-oxaspiro[3.3]heptan-6-yl)pyrrolo[2,3-b]pyridine-6-carboxamide]	–
58.9	1.05	Cc1nc(-c2ccc(Cc3cc(C(=O)NC4CC(C)OC(C)C4)nc4sccc34)cc2)co1 (stereo not shown) [Compound 132, N-(2,6-dimethyltetrahydropyran-4-yl)-4-[[4-(2-methyloxazol-4-yl)phenyl]methyl]thieno[2,3-b]pyridine-6-carboxamide]	–
72.7	1.27	CC(NC(=O)c1cc(Cc2ccc(-c3ccn(C)n3)nc2)c2ccn(C)c2n1)C1CCCO1 (stereo not shown) [Compound 157, 1-methyl-4-[[6-(1-methylpyrazol-3-yl)-3-pyridyl]methyl]-N-(1-tetrahydrofuran-2-ylethyl)pyrrolo[2,3-b]pyridine-6-carboxamide]	–
72.1	0.36	Cn1ccc(-c2ccc(Cc3cc(C(=O)NC[C@@H]4CCCO4)nc4c3ccn4C)cn2)n1 [Compound 158, 1-methyl-4-[[6-(1-methylpyrazol-3-yl)-3-pyridyl]methyl]-N-[[(2S)-tetrahydrofuran-2-yl]methyl]pyrrolo[2,3-b]pyridine-6-carboxamide]	–
45.5	> 10	Cn1ccc(-c2ccc(Cc3cc(C(=O)NC4(C)COC4)nc4c3ccn4C)cn2)n1 [Compound 152, 1-methyl-N-(3-methyloxetan-3-yl)-4-[[6-(1-methylpyrazol-3-yl)-3-pyridyl]methyl]pyrrolo[2,3-b]pyridine-6-carboxamide]	–
